Columns and labels:
[1] = tested on: Salmonella typhimurium TA98 and TA100; experiment: Reverse mutation test (Ames test), overall judgment; assay type: cell-based; conditions: TA98 and TA100, with and without S9mix
Procedure: (§1) In order to examine mutagenicity of Compound I-1, I-2, I-4 and I-5, reverse mutation test using Salmonella typhimurium TA98 and TA100 (hereinafter referred to as Ames test) was conducted.
(§2) The test was conducted without addition of S9mix and with addition of S9mix. Dimethylsulfoxide was used as a negative control. A positive control was 2-(2-furyl)-3-(5-nitro-2-furyl)acrylamide in case S9mix was not added, and 2-aminoanthracene in case S9mix was added.
(§3) The amount of each sample to be added to the test plate was 7 dosages (geometric ratio 4) with the maximum dose being 1250 μg/plate for Compounds I-1 and I-5, and 7 dosages (geometric ratio 3) with the maximum dose being 5000 μg/plate for Compounds I-2 and I-4. After a sample to be examined and a strain (TA98 or TA100), or a sample to be examined, S9mix and the strain were mixed together, the mixture was multilayered using soft agar on a medium of a test plate, and then incubated at 37° C. for 48 hours.

[2] = tested on: Salmonella typhimurium TA98; experiment: Reverse mutation test (Ames test), TA98; assay type: cell-based
Procedure: as §1, §2, §3

[3] = tested on: Salmonella typhimurium TA100; experiment: Reverse mutation test (Ames test), TA100; assay type: cell-based
Procedure: as §1, §2, §3

[4] = tested on: bone marrow cells of Crlj:CD1(ICR) male mouse; experiment: Micronucleus test; assay type: in vivo; conditions: for appearance frequency of MNPCE as compared to the negative control group: 24 and 48 hours after single administration
Procedure: In order to study mutagenicity (in vivo) of Compound I-4, induction of micronucleated polychromatic erythrocyte (hereinafter referred to as MNPCE) was examined using bone marrow cells of Crlj:CD1(ICR) male mouse.
0 mg/kg (negative control group), 250, 500, 1000 and 2000 mg/kg (test sample group) were set as doses for the test. Mice were sacrificed 24 and 48 hours after single oral administration, and bone marrow smear was prepared and observed. Further, a single dose of MMC at 2 mg/kg was abdominally administrated in positive control group, mice were sacrificed 24 hours after the administration, and then bone marrow smear was prepared and observed.
As statistical analysis, significance tests were conducted by Wilcoxon rank sum test for the appearance frequency of MNPCE and the ratio of polychromatic erythrocyte (hereinafter referred to as PCE) to the total red blood cell (hereinafter referred to as RBC) in each administration group concerning the test sample and positive control groups relative to the negative control group and concerning these groups relative to each other where the significance level was set to less than 5% and less than 1%, respectively.

[5] = tested on: Chinese Hamster fibroblast cell line (CHL/IU cell); experiment: Chromosome aberration test; assay type: cell-based; conditions: short-term treatment with or without S9 and 24-hour continuous treatment; 0.15-1.2 mg/mL
Procedure: In order to examine whether Compound I-4 can induce chromosome aberration, the chromosome aberration test was conducted using Chinese Hamster fibroblast cell line (CHL/IU cell) in a culture system with or without addition of S9 by short-term treatment process and in a 24-hour culture system by continuous treatment process. The addition amount of a sample to be tested was set to 1.2, 0.6, 0.3, and 0.15 mg/mL for all the respective culture systems.

[6] = Transferability into brain and clearance, Examples I-20 to I-21; assay type: in vivo, male Wistar rats; conditions: rats, intravenous injection, Table 1-7
Excerpt: Three animals were used for Experiment I-20 and Comparative Experiment I-9, and two animals were used for Experiment I-21 at the respective time points.

[7] = target: T1, intracerebral amyloid (aggregated Aβ1-42 injected into amygdaloid nucleus) (Homo sapiens, UniProt P05067); experiment: Confirmation of imaging of amyloid in brain (ex vivo autoradiogram), Examples II-12 and II-13; set-up: species or system male Wistar rat; conditions: brain slice 60 minutes after tail vein injection
T1 construct: Aβ1-42 (Wako) was dissolved in phosphate buffer (pH 7.4); purchased Wako
Procedure: (§4) The same procedures as in Example II-12 were performed except using a 10 mg/mL solution of Compound II-2 in ascorbic acid (the radioactive concentration of the sample solution was 25 MBq/mL).

[8] = tested on: intracerebral amyloid (aggregated Aβ1-42 injected into amygdaloid nucleus); experiment: as above; set-up: species or system male Wistar rat; conditions: for radioactive accumulation at sites other than amyloid injected sites: autoradiogram, 60 minutes after tail vein injection; for accumulation of radioactivity in amygdaloid nucleus on the side to which the physiological saline solution was injected: brain slice 60 minutes after tail vein injection
Procedure: as §4

[9] = Partition coefficient based on the octanol extraction method, Examples II-8 to II-9; assay type: physicochemical; conditions: octanol / 10 mmol/L phosphate buffer (pH 7.4); Table 2-4
Procedure: To 2 mL of octanol, 10 μL each of the prepared sample solutions was added, 2 mL of 10 mmol/L phosphate buffer (pH 7.4) was added, followed by stirring for 30 seconds. After the mixture was centrifuged with a low-speed centrifuge (2000 rpm×60 min.), the octanol layer and the water layer were sampled each in an amount of 1 mL, and subjected to measurement of radioactivity count with an autowell gamma system (Type: ARC-301B, manufactured by Aloka). Using the obtained radioactivity count, log Poctanol was calculated in accordance with the equation (2-2).

[10] = Transferability into brain and clearance, Examples II-10 to II-11; assay type: in vivo, male Wistar rats; conditions: rats, intravenous injection, Table 2-5
Procedure: 0.05 mL each of the prepared sample solutions was injected under thiopental anesthesia into the tail vein of the rats. The rats were sacrificed by bleeding from abdominal artery, and brains were removed and subjected to measurement of mass of brains and further subjected to measurement of radioactivity (hereinafter referred to as A in this Example) with a single channel analyzer (detector type SP-20 manufactured by OHYO KOKEN KOGYO Co., Ltd.) 2, 5, 30, and 60 minutes after the injection. Further, the radioactivity level of the rest of the whole body was measured in the same manner as above (hereinafter referred to as B in this Example). Using these measurement results, radioactive distribution per unit weight of brain (% ID/g) at the respective time points were calculated in accordance with the following formula (2-3).
Three animals were used for the experiment at the respective time points.

[11] = target: T2, amyloid (aggregated Aβ1-42) (Homo sapiens, UniProt P05067); experiment: Measurement of affinity with amyloid (inhibition of [125I]3′-I-BTA-0 binding), Example II-7; conditions: [125I]3′-I-BTA-0 400 pmol/L, amyloid 1 μmol/L, 1% bovine serum albumin-containing phosphate buffer (pH 7.4)
T2 construct: Aβ1-42 (Wako) was dissolved in phosphate buffer (pH 7.4); purchased Wako
Excerpt: Then, each sample solution was filtered through a glass fiber filter (trade name: Mulutiscreen™-FC, manufactured by Millipore), to separate the [^125I]3′-I-BTA-0 attached to amyloid from the free [^125I]3′-I-BTA-0.
The measured radioactivity level was defined as the background radioactivity level, and used in the calculation of the inhibition ratio (hereinafter referred to as BG).
A graph in which values converted by probit transformation from the obtained inhibition ratios were plotted relative to logarithms of concentrations of compounds for evaluation was prepared to obtain an approximate straight line by the least square method.

[12] = International Publication WO03/106439 pamphlet; cited from earlier work
[13] = normal mice, [125I]-labeled, cited from earlier work; for transfer into brain: 2 minutes after administration

T2 sequence (P05067 672-713 limits assumed): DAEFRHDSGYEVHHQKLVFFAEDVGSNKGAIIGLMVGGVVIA
T1 sequence (P05067 672-713): as the sequence (P05067 672-713 limits assumed) above

## FCCCOc1ccc(-c2cn3cc(Br)ccc3n2)cc1 [Compound I-1, 6-bromo-2-[4′-(3″-fluoropropoxy)phenyl]imidazo[1,2-a]pyridine]
[1]
  judgment in the Ames test: negative
[2]; With addition of S9mix
  Mutagenicity, TA98: Negative
[2]; Without addition of S9mix
  Mutagenicity, TA98: Negative
[3]; With addition of S9mix
  Mutagenicity, TA100: Negative
[3]; Without addition of S9mix
  Mutagenicity, TA100: Negative

## FCCCOc1ccc(-c2cn3cc(I)ccc3n2)cc1 [Compound I-2, 2-[4′-(3″-fluoropropoxy)phenyl]-6-iodoimidazo[1,2-a]pyridine]
[1]
  judgment in the Ames test: negative
[2]; With addition of S9mix
  Mutagenicity, TA98: Negative
[2]; Without addition of S9mix
  Mutagenicity, TA98: Negative
[3]; With addition of S9mix
  Mutagenicity, TA100: Negative
[3]; Without addition of S9mix
  Mutagenicity, TA100: Negative

## FCCOc1ccc(-c2cn3cc(I)ccc3n2)cc1 [Compound I-4, 2-[4′-(2″-fluoroethoxy)phenyl]-6-iodoimidazo[1,2-a]pyridine]
[1]
  judgment in the Ames test: negative
[4]; mouse bone marrow
  appearance frequency of MNPCE as compared to the negative control group: no statistically significant difference
[4]; mouse bone marrow, 24 and 48 hours after single oral administration, 250-2000 mg/kg
  ratio of PCE to RBC as compared to the negative control group: no statistically significant difference
[4]; single oral administration, 250-2000 mg/kg
  mutagenicity (in vivo) judgment: negative
[5]
  appearance frequency of cells having structural aberration or numerical aberration (diploid): comparable to that of the negative control group
  capability of inducing chromosome aberration (judgment): negative
[2]; With addition of S9mix
  Mutagenicity, TA98: Negative
[2]; Without addition of S9mix
  Mutagenicity, TA98: Negative
[3]; With addition of S9mix
  Mutagenicity, TA100: Negative
[3]; Without addition of S9mix
  Mutagenicity, TA100: Negative

## FCCCOc1ccc(-c2cn3cc(I)cnc3n2)cc1 [Compound I-5, 2-[4′-(3″-fluoropropoxy)phenyl]-6-iodoimidazo[1,2-a]pyrimidine]
[1]
  judgment in the Ames test: negative
[2]; With addition of S9mix
  Mutagenicity, TA98: Negative
[2]; Without addition of S9mix
  Mutagenicity, TA98: Negative
[3]; With addition of S9mix
  Mutagenicity, TA100: Negative
[3]; Without addition of S9mix
  Mutagenicity, TA100: Negative

## [18F]CCCOc1ccc(-c2cn3cc(Br)ccc3n2)cc1 [Compound I-8, 6-bromo-2-[4′-(3″-[^18F]fluoropropoxy)phenyl]imidazo[1,2-a]pyridine]
[6]; 2 min.
  Radioactive distribution in brain per unit weight, After 2 min.: 1.20 % ID/g
[6]; 5 min.
  Radioactive distribution in brain per unit weight, After 5 min.: 0.75 % ID/g
[6]; 30 min.
  Radioactive distribution in brain per unit weight, After 30 min.: 0.18 % ID/g
[6]; 60 min.
  Radioactive distribution in brain per unit weight, After 60 min.: 0.12 % ID/g

## OCCOc1ccc(-c2cn3cc([123I])ccc3n2)cc1 [Compound II-1, 2-[4′-(2″-hydroxyethoxy)phenyl]-6-[^123I]iodoimidazo[1,2-a]pyridine]
[7]
  accumulation of radioactivity in amygdaloid nucleus on the side to which the amyloid suspension was injected: marked accumulation of radioactivity
[8]
  radioactive accumulation at sites other than amyloid injected sites: little radioactive accumulation at the sites other than amyloid injected sites
  accumulation of radioactivity in amygdaloid nucleus on the side to which the physiological saline solution was injected: no significant accumulation of radioactivity
[9]
  logPoctanol value: 1.8
[10]
  Radioactive distribution in brain per unit weight, After 2 min.: 0.90 % ID/g
  Radioactive distribution in brain per unit weight, After 5 min.: 0.52 % ID/g
  Radioactive distribution in brain per unit weight, After 30 min.: 0.06 % ID/g
  Radioactive distribution in brain per unit weight, After 60 min.: 0.01 % ID/g

## CCOc1ccc(-c2cn3cc([123I])ccc3n2)cc1 [Compound II-2, 2-(4′-ethoxyphenyl)-6-[^123I]iodoimidazo[1,2-a]pyridine]
[7]
  accumulation of radioactivity in amygdaloid nucleus on the side to which the amyloid suspension was injected: marked accumulation of radioactivity
[8]
  radioactive accumulation at sites other than amyloid injected sites: some radioactive accumulation in sites other than amyloid injected sites, but the accumulation was highly suppressed as compared to ^123I-IMPY
  accumulation of radioactivity in amygdaloid nucleus on the side to which the physiological saline solution was injected: no significant accumulation of radioactivity
[9]
  logPoctanol value: 2.1
[10]
  Radioactive distribution in brain per unit weight, After 2 min.: 0.89 % ID/g
  Radioactive distribution in brain per unit weight, After 5 min.: 0.66 % ID/g
  Radioactive distribution in brain per unit weight, After 30 min.: 0.13 % ID/g
  Radioactive distribution in brain per unit weight, After 60 min.: 0.04 % ID/g

## OCCOc1ccc(-c2cn3cc(I)ccc3n2)cc1 [Compound II-3, 2-[4′-(2″-hydroxyethoxy)phenyl]-6-iodoimidazo[1,2-a]pyridine]
[11]
  IC50: < 100 nM

## Nc1c(/N=N/c2ccc(-c3ccc(/N=N/c4cc(S(=O)(=O)O)c5ccccc5c4N)cc3)cc2)cc(S(=O)(=O)O)c2ccccc12 [Congo Red, reference compound]
[11]
  IC50: > 1000 nM

## CC(=C(C#N)C#N)c1ccc2cc(N(C)CCF)ccc2c1 [FDDNP, 2-(1-{6-[(2-fluoroethyl)(methyl)amino]-2-naphthyl}ethylidene)malononitrile]
[12]
  reverse mutation test result: positive

## CN(C)c1ccc(-c2nc3ccc(I)cc3o2)cc1 [IBOX, 6-iodo-2-[4′-(N,N-dimethylamino)phenyl]benzoxazole]
[13]
  transfer into brain: transferred into brain
  clearance from normal tissues: insufficient in clearance from normal tissues

## CO[C@@]12[C@H](COC(N)=O)C3=C(C(=O)C(C)=C(N)C3=O)N1C[C@@H]1N[C@@H]12 [MMC, reference compound]
[4]; mouse bone marrow
  appearance frequency of MNPCE as compared to the negative control group: significant increase

## CN(C)c1ccc(-c2nc3ccc(I)cc3s2)cc1 [TZDM, 6-iodo-2-[4′-(N,N-dimethylamino)phenyl]benzothiazole]
[13]
  transfer into brain: transferred into brain
  clearance from normal tissues: insufficient in clearance from normal tissues

## CN(C)c1ccc(/C=C/c2ccc(I)cc2)cc1 [m-I-SB, (E)-4-dimethylamino-4′-iodostilbene]
[13]
  transfer into brain: transferred into brain
  clearance from normal tissues: insufficient in clearance from normal tissues

Source: US8506930B2, “Compounds having affinity for amyloid” (Nihon Medi-Physics Co., Ltd., priority 2006, dated 2013)
